# Data from patent US9187497B2, “Substituted pyrido[3,2-e]pyrrolo[1,2-a]pyrazines as inhibitors of poly(ADP-ribose)polymerase (PARP)” (Takeda Phamaceutical Company Limited, priority 2009, dated 2015).
# Assays:
# Jurkat cell line = experiment: PARP cellular chemopotentiation assay (MTS cell viability with and without TMZ); format: cell-based; details: ratio of EC50 for inhibition of cell viability without and with 100 μM TMZ; Jurkat cells, 96 hours of treatment
# Method in brief: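 Jurkat cells, 10,000/well, pre-cultured 24 h, then treated 96 h with serial compound dilutions (0.5% DMSO) with or without 100 μM TMZ. Viability by MTS conversion (OD490), normalized to DMSO controls; EC50 from curve fits, PF50 = EC50 without TMZ / EC50 with TMZ.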
# [1] = target: T1, catalytic domain of Human PARP (Homo sapiens, UniProt P09874); experiment: Biacore surface plasmon resonance affinity assay (dissociation constant KD); format: binding; details: pKD=-log(KD), KD in molar concentration; Biacore T100, 25° C.
# T1 construct: The catalytic domain of Human PARP was cloned and prepared; made in house
# T1 sequence (P09874 788-1014 limits assumed): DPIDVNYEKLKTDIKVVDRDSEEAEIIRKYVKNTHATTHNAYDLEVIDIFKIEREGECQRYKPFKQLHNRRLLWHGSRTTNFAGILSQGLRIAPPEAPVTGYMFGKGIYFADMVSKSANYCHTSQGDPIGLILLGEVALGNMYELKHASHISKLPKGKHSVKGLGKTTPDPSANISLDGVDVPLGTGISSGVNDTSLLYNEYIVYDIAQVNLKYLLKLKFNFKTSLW
# Procedure: Dissociation Constant (KD) from Surface Plasmon Resonance
# The catalytic domain of Human PARP was cloned and prepared as described in Kinoshita, T.; Nakanishi, I.; Warizaya, M.; Iwashita, A.; Kido, Y.; Hattori, K. and Fujii, T. 2006 FEBS Letters 556, 43-46. Purified enzyme was stored at −80° C. in 25 mM Tris(hydroxymethyl)aminomethane (Tris) pH 7.4, 150 mM NaCl, 2 mM dithiothreitol (DTT) at a concentration of 6 mg/ml.
# Biacore affinity assays for test compounds were conducted on a Biacore T100 (GE Healthcare) as follows. A Series S Sensor Chip CM5 (part number BR-1006-68, GE Healthcare) was activated for amide coupling with an Amine Coupling Kit (part number BR-1000-50, GE Healthcare) as described by the manufacturer. The mobile phase buffer consisted of Biacore buffer HBS-P (part number BR-1003-68, GE Healthcare) supplemented with 1% v/v dimethylsulfoxide (DMSO), 0.5 mM Tris(2-carboxyethyl)phosphine hydrochloride (TCEP), and 5 mM MgCl2. Enzyme samples (2 μl/6 mg/ml) stored at −80° C. were diluted to 0.080 mg/ml with 10 mM 4-morpholineethanesulfonic acid (MES) pH 6.5 and then mounted on the activated Biacore CM5 chip at a flow rate of 10 μl/min for 240 seconds. When successfully mounted, a signal of approximately 8,000 reflective units was observed. Test compounds were diluted 9 times 2-fold serially in mobile phase buffer (listed above) at 1% v/v DMSO final to generate a concentration gradient bracketing their anticipated KDs. Biacore mounted PARP was given a 1 minute exposure (association phase) to various concentrations of test compounds to observe a steady state equilibrium or an on rate. The exposure was followed with a dissociation phase of 5 minutes. The association and dissociation phases were at a flow rate of 50 μl/min and a temperature of 25° C.
# Parameters Rmax (response at saturation) and KD (binding constant) were calculated through a nonlinear least squares fitting of the equation to the data by use of the Biacore T100 analysis software.
# Parameter optimization was through a nonlinear least squares analysis of the association phase Response=Rmax*(1−exp(−(kon[cmpd]+koff)*t)) and dissociation phase Response=[…] by use of the Biacore T100 analysis software. The binding constant KD was calculated from the definition KD=koff/kon
# PARP = target: T2, PARP (Homo sapiens, UniProt P09874); experiment: PARP ELISA colorimetric assay of inhibition of PARP catalytic activity (IC50); format: biochemical; details: pIC50=-log(IC50), IC50 in molar concentration; ELISA-based PARP kit, 10 minutes of catalysis
# T2 construct: purchased Trevigen 4684-096-01 (enzyme); kit 4684-096-K HT
# T2 sequence (P09874 whole entry): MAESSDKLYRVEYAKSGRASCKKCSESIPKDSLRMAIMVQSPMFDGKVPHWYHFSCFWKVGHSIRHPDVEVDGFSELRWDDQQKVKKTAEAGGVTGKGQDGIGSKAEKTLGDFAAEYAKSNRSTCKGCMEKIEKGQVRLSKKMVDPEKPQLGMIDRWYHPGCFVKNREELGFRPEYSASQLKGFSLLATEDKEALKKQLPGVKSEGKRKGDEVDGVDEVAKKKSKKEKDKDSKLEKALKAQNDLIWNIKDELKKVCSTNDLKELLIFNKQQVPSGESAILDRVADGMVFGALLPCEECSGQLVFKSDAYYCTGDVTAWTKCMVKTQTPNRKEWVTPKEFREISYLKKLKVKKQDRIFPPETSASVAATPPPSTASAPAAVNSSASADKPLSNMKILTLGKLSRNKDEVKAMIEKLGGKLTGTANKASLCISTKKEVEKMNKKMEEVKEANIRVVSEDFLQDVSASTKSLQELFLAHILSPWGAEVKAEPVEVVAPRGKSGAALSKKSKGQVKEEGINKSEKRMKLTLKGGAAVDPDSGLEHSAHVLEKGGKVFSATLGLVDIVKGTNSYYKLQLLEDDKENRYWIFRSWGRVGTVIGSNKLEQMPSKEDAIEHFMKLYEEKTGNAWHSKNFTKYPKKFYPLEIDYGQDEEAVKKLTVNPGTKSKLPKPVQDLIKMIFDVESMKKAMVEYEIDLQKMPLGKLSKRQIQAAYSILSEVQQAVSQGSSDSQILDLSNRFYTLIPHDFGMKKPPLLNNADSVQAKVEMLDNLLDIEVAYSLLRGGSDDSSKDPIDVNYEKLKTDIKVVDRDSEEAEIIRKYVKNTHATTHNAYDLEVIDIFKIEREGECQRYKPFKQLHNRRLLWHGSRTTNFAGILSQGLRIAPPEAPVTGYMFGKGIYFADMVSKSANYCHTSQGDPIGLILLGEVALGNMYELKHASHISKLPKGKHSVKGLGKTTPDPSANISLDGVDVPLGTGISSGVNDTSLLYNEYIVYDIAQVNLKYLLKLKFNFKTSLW
# Method in brief: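 Human PARP was added as a 0.1 nM solution to histone-coated wells with compound for a 10-min ambient preincubation. The reaction was started with 100 μM NAD+ solution plus activated DNA and run 10 min. PAR formation was detected by anti-PAR ELISA, colorimetric. IC50 came from a 12-point, 3-fold gradient fitted by nonlinear least squares to a Hill equation.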
SMILES,PF50 (Jurkat cell line),melting point [°C],Kd [1] [µM],IC50 (PARP) [µM]
"O=C1Nc2cc(CN3CCN(c4ccc(Cl)cc4)CC3)cnc2N2CCC[C@@H]12 [Compound 1, (S)-3-((4-(4-chlorophenyl)piperazin-1-yl)methyl)-6a,7,8,9-tetrahydropyrido[3,2-e]pyrrolo[1,2-a]pyrazin-6(5H)-one]",>500,265 to 268,,
"CCNC(=O)c1ccc(N2CCN(Cc3cnc4c(c3)NC(=O)[C@@H]3CCCN43)CC2)cc1 [Compound 10, (S)—N-ethyl-4-(4-((6-oxo-5,6,6a,7,8,9-hexahydropyrido[3,2-e]pyrrolo[1,2-a]pyrazin-3-yl)methyl)piperazin-1-yl)benzamide]",>5000,,< 0.0316,≤ 0.0126
"N#Cc1ccc(N2CCN(Cc3cnc4c(c3)NC(=O)[C@@H]3CCCN43)CC2)c(F)c1 [Compound 14, (S)-3-fluoro-4-(4-((6-oxo-5,6,6a,7,8,9-hexahydropyrido[3,2-e]pyrrolo[1,2-a]pyrazin-3-yl)methyl)piperazin-1-yl)benzonitrile]",>500,226,,
"N#Cc1ccc(N2CCN(Cc3cnc4c(c3)NC(=O)[C@@H]3CCCN43)CC2)c(Cl)c1 [Compound 16, (S)-3-chloro-4-(4-((6-oxo-5,6,6a,7,8,9-hexahydropyrido[3,2-e]pyrrolo[1,2-a]pyrazin-3-yl)methyl)piperazin-1-yl)benzonitrile]",>500,213 to 215,,
"N#Cc1cc(F)c(N2CCN(Cc3cnc4c(c3)NC(=O)[C@@H]3CCCN43)CC2)cc1F [Compound 17, (S)-2,5-difluoro-4-(4-((6-oxo-5,6,6a,7,8,9-hexahydropyrido[3,2-e]pyrrolo[1,2-a]pyrazin-3-yl)methyl)piperazin-1-yl)benzonitrile]",>2000,224 to 227,,
"N#Cc1ccc(N2CCN(Cc3cnc4c(c3)NC(=O)[C@@H]3CCCN43)CC2)cc1F [Compound 21, (S)-2-fluoro-4-(4-((6-oxo-5,6,6a,7,8,9-hexahydropyrido[3,2-e]pyrrolo[1,2-a]pyrazin-3-yl)methyl)piperazin-1-yl)benzonitrile]",>2000,251 to 255,,
"C[C@H]1C(=O)Nc2cc(CN3CCC(c4ccc(Cl)cc4)CC3)cnc2N1C [Compound 53, (S)-7-((4-(4-chlorophenyl)piperidin-1-yl)methyl)-3,4-dimethyl-3,4-dihydropyrido[3,2-b]pyrazin-2(1H)-one]",≧0,,0.0316 to 0.794,≥ 0.0501
"C[C@H]1C(=O)Nc2cc(CN3CC=C(c4ccccc4)CC3)cnc2N1C [Compound 57, (S)-3,4-dimethyl-7-((4-phenyl-5,6-dihydropyridin-1(2H)-yl)methyl)-3,4-dihydropyrido[3,2-b]pyrazin-2(1H)-one]",≧0,,< 0.0316,
"C[C@H]1C(=O)Nc2cc(CN3CCN(c4ccc(Cl)cc4)CC3)cnc2N1C [Compound 59, (S)-7-((4-(4-chlorophenyl)piperazin-1-yl)methyl)-3,4-dimethyl-3,4-dihydropyrido[3,2-b]pyrazin-2(1H)-one]",≧0,,< 0.0316,
"CCN1c2ncc(CN3CC=C(c4ccc(Cl)cc4)CC3)cc2NC(=O)[C@@H]1C [Compound 63, (S)-7-((4-(4-chlorophenyl)-5,6-dihydropyridin-1(2H)-yl)methyl)-4-ethyl-3-methyl-3,4-dihydropyrido[3,2-b]pyrazin-2(1H)-one]",≧0,,0.0316 to 0.794,
"O=C1Nc2cc(CN3CC=C(c4ccc(Cl)cc4)CC3)cnc2N2CCCCC12 (stereo not drawn) [Compound 65, 3-((4-(4-chlorophenyl)-5,6-dihydropyridin-1(2H)-yl)methyl)-7,8,9,10-tetrahydro-5H-dipyrido[1,2-a:3′,2′-e]pyrazin-6(6aH)-one]",>10,,≥ 1,≤ 0.0126
"O=C1Nc2cc(CN3CCN(c4ccc(Cl)cc4)CC3)cnc2N2CCCCC12 (stereo not drawn) [Compound 66, 3-((4-(4-chlorophenyl)piperazin-1-yl)methyl)-7,8,9,10-tetrahydro-5H-dipyrido[1,2-a:3′,2′-e]pyrazin-6(6aH)-one]",>10,,≥ 1,0.0158 to 0.0398
"O=C1Nc2cc(CN3CCC(c4ccc(Cl)cc4)CC3)cnc2N2CCCCC12 (stereo not drawn) [Compound 67, 3-((4-(4-chlorophenyl)piperidin-1-yl)methyl)-7,8,9,10-tetrahydro-5H-dipyrido[1,2-a:3′,2′-e]pyrazin-6(6aH)-one]",≧0,,< 0.0316,0.0158 to 0.0398
"CN1CC(=O)Nc2cc(CN3CC=C(c4ccc(Cl)cc4)CC3)cnc21 [Compound 80, 7-((4-(4-chlorophenyl)-5,6-dihydropyridin-1(2H)-yl)methyl)-4-methyl-3,4-dihydropyrido[2,3-b]pyrazin-2(1H)-one]",≧0,,< 0.0316,≥ 0.0501
"CN1CC(=O)Nc2cc(CN3CCN(c4ccc(Cl)cc4)CC3)cnc21 [Compound 81, 7-((4-(4-chlorophenyl)piperazin-1-yl)methyl)-4-methyl-3,4-dihydropyrido[2,3-b]pyrazin-2(1H)-one]",≧0,,0.0316 to 0.794,≥ 0.0501
"CN1CC(=O)Nc2cc(CN3CCC(c4ccc(Cl)cc4)CC3)cnc21 [Compound 82, 7-((4-(4-chlorophenyl)piperidin-1-yl)methyl)-4-methyl-3,4-dihydropyrido[2,3-b]pyrazin-2(1H)-one]",≧0,,0.0316 to 0.794,≥ 0.0501
"O=C1CN(Cc2ccccc2)c2ncc(CN3CC=C(c4ccc(Cl)cc4)CC3)cc2N1 [Compound 83, 4-benzyl-7-((4-(4-chlorophenyl)-5,6-dihydropyridin-1(2H)-yl)methyl)-3,4-dihydropyrido[2,3-b]pyrazin-2(1H)-one]",≧0,,≥ 1,0.0158 to 0.0398
"O=C1CN(Cc2ccccc2)c2ncc(CN3CCN(c4ccc(Cl)cc4)CC3)cc2N1 [Compound 84, 4-benzyl-7-((4-(4-chlorophenyl)piperazin-1-yl)methyl)-3,4-dihydropyrido[2,3-b]pyrazin-2(1H)-one]",≧0,,0.0316 to 0.794,≤ 0.0126
"O=C1CN(Cc2ccccc2)c2ncc(CN3CCC(c4ccc(Cl)cc4)CC3)cc2N1 [Compound 85, 4-benzyl-7-((4-(4-chlorophenyl)piperidin-1-yl)methyl)-3,4-dihydropyrido[2,3-b]pyrazin-2(1H)-one]",≧0,,0.0316 to 0.794,0.0158 to 0.0398
"O=C1Nc2cc(CN3CC=C(c4ccc(Cl)cc4)CC3)cnc2N2CCSCC12 (stereo not drawn) [Compound 86, 3-((4-(4-chlorophenyl)-5,6-dihydropyridin-1(2H)-yl)methyl)-6a,7,9,10-tetrahydropyrido[3,2-e][1,4]thiazino[4,3-a]pyrazin-6(5H)-one]",>500,,< 0.0316,0.0158 to 0.0398
"O=C1Nc2cc(CN3CCC(c4ccc(Cl)cc4)CC3)cnc2N2CCSCC12 (stereo not drawn) [Compound 88, 3-((4-(4-chlorophenyl)piperidin-1-yl)methyl)-6a,7,9,10-tetrahydropyrido[3,2-e][1,4]thiazino[4,3-a]pyrazin-6(5H)-one]",≧0,,< 0.0316,≤ 0.0126
"CCNC(=O)c1ccc(N2CCN(Cc3cnc4c(c3)NC(=O)[C@@H]3CSCCN43)CC2)cc1 [Compound 92, (R)—N-ethyl-4-(4-((6-oxo-5,6,6a,7,9,10-hexahydropyrido[3,2-e][1,4]thiazino[4,3-a]pyrazin-3-yl)methyl)piperazin-1-yl)benzamide]",>5000,288.9,,
